Literature values as cited in patent publication US20240315993A1, “ANTIPARASITIC COMPOUNDS” (Intervet Inc., priority 2021, published 2024).

Tests used:
[1] = tested on: Beet Armyworm (Spodoptera exigua); details: Beet Armyworm second instar larvae, 128-well diet tray, 50 μg/cm^2, five to seven days, average of eight wells; cited from earlier work
[2] = tested on: Cabbage Looper (Trichoplusia ni); details: Cabbage Looper second instar larvae, 128-well diet tray, 50 μg/cm^2, five to seven days, average of eight wells; cited from earlier work
[3] = tested on: Yellow Fever Mosquito (Aedes aegypti); details: Aedes aegypti larvae about 1 day old, 96-well plate, scored after 3 days; cited from earlier work

| Structure (SMILES) | Test A: Bioassay on BAW, percent mortality rating [1] | Test B: Bioassay on CL, percent mortality rating [2] | Test C: Bioassay on Yellow Fever Mosquito, mortality rating [3] |
| --- | --- | --- | --- |
| Cc1nc2cc(NC(=O)c3cc(NC(=O)C4C(c5cc(Cl)cc(Cl)c5)C4(Cl)Cl)ccc3Cl)ccc2s1 (stereo not drawn) [c33] | A (50-100) | A (50-100) | A (80-100) |
| O=C(Nc1ccc2[nH]cnc2c1)c1cc(NC(=O)C2C(c3cc(Cl)cc(Cl)c3)C2(Cl)Cl)ccc1Cl (stereo not drawn) [c34] | A (50-100) | A (50-100) | B (More than 0 - Less than 80) |
| CNc1ccc(NC(=O)c2cc(NC(=O)C3C(c4cc(Cl)cc(Cl)c4)C3(Cl)Cl)ccc2Cl)c(C)c1 (stereo not drawn) [c35] | A (50-100) | A (50-100) | A (80-100) |
| Cn1ccc2cc(NC(=O)c3cc(NC(=O)C4C(c5cc(Cl)cc(Cl)c5)C4(Cl)Cl)ccc3Cl)ccc21 (stereo not drawn) [c36] | A (50-100) | A (50-100) | A (80-100) |
| O=C(Nc1ccc2c(ccn2Cc2ccccc2)c1)c1cc(NC(=O)C2C(c3cc(Cl)cc(Cl)c3)C2(Cl)Cl)ccc1Cl (stereo not drawn) [c37] | A (50-100) | A (50-100) | D (No activity noticed in this bioassay) |
| CN1C(=O)Cc2cc(NC(=O)c3cc(NC(=O)C4C(c5cc(Cl)cc(Cl)c5)C4(Cl)Cl)ccc3Cl)ccc21 (stereo not drawn) [c38] | A (50-100) | A (50-100) | A (80-100) |
| Cn1nc(NC(=O)c2cc(NC(=O)C3C(c4cc(Cl)cc(Cl)c4)C3(Cl)Cl)ccc2Cl)c2cc(C(F)(F)F)ccc21 (stereo not drawn) [c39] | A (50-100) | A (50-100) | A (80-100) |
| O=C(Nc1ccc(-c2nccs2)cc1)c1cc(NC(=O)C2C(c3cc(Cl)cc(Cl)c3)C2(Cl)Cl)ccc1Cl (stereo not drawn) [c41] | A (50-100) | A (50-100) | A (80-100) |
| Cc1cc(N(C)C(=O)OC(C)(C)C)ccc1NC(=O)c1cc(NC(=O)C2C(c3ccc(F)c(Cl)c3)C2(Cl)Cl)ccc1Cl (stereo not drawn) [c42] | A (50-100) | D (No activity noticed in this bioassay) | D (No activity noticed in this bioassay) |
| Cc1cc(N(C)C(=O)OC(C)(C)C)ccc1N(C)C(=O)c1cc(NC(=O)C2C(c3cc(Cl)cc(Cl)c3)C2(Cl)Cl)ccc1Cl (stereo not drawn) [c43] | A (50-100) | A (50-100) | D (No activity noticed in this bioassay) |
| Cc1cc(N(C)C(=O)OC(C)(C)C)ccc1N(C)C(=O)c1cc(NC(=O)C2C(c3cc(Cl)c(Cl)c(Cl)c3)C2(Cl)Cl)ccc1Cl (stereo not drawn) [c44] | A (50-100) | D (No activity noticed in this bioassay) | D (No activity noticed in this bioassay) |
| O=C(Nc1nc(-c2cccs2)cs1)c1cc(NC(=O)[C@H]2[C@H](c3cc(Cl)cc(Cl)c3)C2(Cl)Cl)ccc1Cl [c45] | A (50-100) | A (50-100) | A (80-100) |
| O=C(Nc1ccc2[nH]c(C(F)(F)F)cc2c1)c1cc(NC(=O)C2C(c3cc(Cl)cc(Cl)c3)C2(Cl)Cl)ccc1Cl (stereo not drawn) [c46] | A (50-100) | A (50-100) | D (No activity noticed in this bioassay) |
| CNc1ccc(NC(=O)c2cc(NC(=O)C3C(c4cc(Cl)c(Cl)c(Cl)c4)C3(Cl)Cl)ccc2Cl)c(C)c1 (stereo not drawn) [c47] | A (50-100) | A (50-100) | A (80-100) |
| CNc1ccc(N(C)C(=O)c2cc(NC(=O)C3C(c4cc(Cl)cc(Cl)c4)C3(Cl)Cl)ccc2Cl)c(C)c1 (stereo not drawn) [c48] | A (50-100) | A (50-100) | D (No activity noticed in this bioassay) |
| CNc1ccc(N(C)C(=O)c2cc(NC(=O)C3C(c4cc(Cl)c(Cl)c(Cl)c4)C3(Cl)Cl)ccc2Cl)c(C)c1 (stereo not drawn) [c49] | A (50-100) | A (50-100) | A (80-100) |
| N#Cc1cc([N+](=O)[O-])ccc1NC(=O)c1cc(NC(=O)C2C(c3cc(Cl)cc(Cl)c3)C2(Cl)Cl)ccc1Cl (stereo not drawn) [c51] | A (50-100) | A (50-100) | A (80-100) |
